Values after ≈ are worked out from the molar mass of the structure shown. Values joined by “and” are separate entries in the source; they are usually repeats but may differ in a detail not shown here. Identical values can stand only once. Like-named read-outs stand apart in the source and are kept apart here.
What was measured:
[1] = Changes in MIC under different conditions: agar MIC; assay type: cell-based; conditions: strain not given
[2] = Changes in MIC under different conditions: broth MIC; assay type: cell-based; conditions: strain not given
[3] = system: MRSA 562; assay: In vivo activity against MRSA 562 (ED50); set-up: species or system Methicillin Resistant Staphylococcus aureus; conditions: IV; MRSA 562 infection
[4] = system: anaerobic bacteria; assay: Agar dilution method for anaerobic bacteria, summary; assay type: cell-based
[5] = system: Clostridium camis; assay: Agar dilution MIC, anaerobes; assay type: cell-based
[6] = system: Clostridium perfringens; assay: microbe, parasite or virus in culture; assay type: cell-based
[7] = system: Clostridium difficile; assay: Agar dilution MIC, anaerobes; assay type: cell-based; conditions: for MIC Clostridium difficile: single isolates, anaerobic agar dilution
[8] = system: Bacteroides fragilis; assay: Agar dilution MIC, anaerobes; assay type: cell-based
[9] = system: Prevotella (Bacteroides) disiens; assay: Agar dilution MIC, anaerobes; assay type: cell-based; conditions: read-out: MIC Prevotella (Bacteroides) disiens
[10] = system: Prevotella bivia; assay: Agar dilution MIC, anaerobes; assay type: cell-based
[11] = system: Prevotella intermedia; assay: Agar dilution MIC, anaerobes; assay type: cell-based
[12] = system: Prevotella melaninogenica; assay: Agar dilution MIC, anaerobes; assay type: cell-based; conditions: Prevotella melaninogenica, read-out: MIC Prevotella melaninogenica
[13] = system: Porphyromonas asaccharolytica; assay: Agar dilution MIC, anaerobes; assay type: cell-based
[14] = system: Fusobacterium montiferum; assay: Agar dilution MIC, anaerobes; assay type: cell-based
[15] = system: Fusobacterium nucleatum; assay: Agar dilution MIC, anaerobes; assay type: cell-based; conditions: Fusobacterium nucleatum, read-out: MIC Fusobacterium nucleatum
[16] = system: Porphyromonas gingivalis; assay: Agar dilution MIC, anaerobes; assay type: cell-based
[17] = system: Fusobacterium varium; assay: Agar dilution MIC, anaerobes; assay type: cell-based; conditions: Fusobacterium varium, read-out: MIC Fusobacterium varium
[18] = system: P. acnes; assay: Agar dilution MIC, anaerobes; assay type: cell-based; conditions: for MIC P. acnes: single isolates, anaerobic agar dilution
[19] = system: Peptostreptococcus magnum; assay: Agar dilution MIC, anaerobes; assay type: cell-based
[20] = system: Peptostreptococcus micros; assay: Agar dilution MIC, anaerobes; assay type: cell-based; conditions: Parvimonas micra, read-out: MIC Peptostreptococcus micros
[21] = system: Peptostreptococcus tetradius; assay: Agar dilution MIC, anaerobes; assay type: cell-based
[22] = system: Peptostreptococcus prevotii; assay: Agar dilution MIC, anaerobes; assay type: cell-based; conditions: Anaerococcus prevotii, read-out: MIC Peptostreptococcus prevotii
[23] = system: Eubacterium leutum; assay: Agar dilution MIC, anaerobes; assay type: cell-based
[24] = system: Fusobacterium necrogenes; assay: Agar dilution MIC, anaerobes; assay type: cell-based
[25] = system: MRSE 879; assay: Broth MIC, MRSE 879; assay type: cell-based
[26] = system: MRSA 15187; assay: MIC, agar incorporation method
[27] = system: MRSA 562; assay: MIC, agar incorporation method; conditions: Staphylococcus aureus, MRSA
[28] = system: MRSA 33; assay: MIC, agar incorporation method
[29] = system: Ent. faecalis ATCC 29212; assay: MIC, agar incorporation method
[30] = system: VRE 6A (Ent. faecium 6A); assay: MIC, agar incorporation method
[31] = system: Strep. pyog. ATCC 19615; assay: MIC, agar incorporation method
[32] = system: Strep. pne. ATCC 6303; assay: MIC, agar incorporation method
[33] = system: S. pneum AB 34; assay: MIC, agar incorporation method
[34] = system: G +ve bacteria; assay: Summary of in vitro activity (MIC)
[35] = system: S. aureus; assay: Summary of in vitro activity (MIC); conditions: Staphylococcus aureus
[36] = system: E. faecalis; assay: Summary of in vitro activity (MIC); conditions: Enterococcus faecalis
[37] = system: S. pneumoniae; assay: Summary of in vitro activity (MIC); conditions: Streptococcus pneumoniae
[38] = system: MRSE 879 adherent bacteria; assay: Sintered glass adherent bacteria model; conditions: MRSE 879, sintered glass adherent bacteria model
[39] = system: Peptostreptococcus asaccharolyticus; assay: Agar dilution MIC, anaerobes; assay type: cell-based; conditions: single isolates, anaerobic agar dilution
[40] = system: MRSA 1029/99 and MRSE 879/247; assay: Inhibition of biofilm (slime) production; assay type: cell-based; conditions: trypticase soy broth with 2% glucose, overnight 37° C., safranin OD 544 nm
Procedure: To study the effect of Compound No. 16 on the inhibition of biofilm production, the following study was carried out. […] Bacterial suspensions (in triplicate) were exposed to doubling dilution of antibiotics and incubated overnight at 37° C. with constant shaking (100 rpm). Next day, after aspirating the medium, biofilm was stained with safranin (0.1%) for 1 hour at room temperature, washed with distilled water, tapped dried and stain extracted into 200 μl of 0.2M NaoH and OD measured at 544 nm. Relative inhibition was determined by using the formula: […]

[41] = system: Mycobacterium avium intracellulare; assay: Agar dilution method, mycobacteria; assay type: cell-based
[42] = system: Mycobacterium tuberculosis
[43] = system: S. aureus ATCC 25923; assay: MIC, agar incorporation method; conditions: agar incorporation
[44] = single isolates, anaerobic agar dilution
[45] = anaerobes, Wilkins Chalgren agar, 48 hour
[46] = single isolate, anaerobic agar dilution

Q: With `CN[C@H](CC(C)C)C(=O)N[C@H]1C(=O)N[C@@H](CC(N)=O)C(=O)N[C@H]2C(=O)N[C@H]3C(=O)N[C@H](C(=O)N[C@H](C(=O)O)c4cc(O)cc(O)c4-c4cc3ccc4O)[C@H](O)c3ccc(c(Cl)c3)Oc3cc2cc(c3O[C@@H]2O[C@H](CO)[C@@H](O)[C@H](O)[C@H]2O[C@H]2C[C@](C)(N)[C@H](O)[C@H](C)O2)Oc2ccc(cc2Cl)[C@H]1O` [Vancomycin] as the molecule, how does the “Agar MIC” value [1] read?
A: 1 µg/mL

Q: What about the “Broth MIC +50% Sheep serum” value [2] of the same molecule?
A: 1 µg/mL

Q: What about the “Broth MIC Normal MH broth” value [2] of the same molecule?
A: 1 µg/mL

Q: What about the “ED50 (mg/kg body weight)” value [3] of the same molecule?
A: 8.84 (IV) mg/kg body weight

Q: What about the MIC50 ([4]; 48 h) of the same molecule?
A: 32 µg/mL (≈ 22.1 µM)

Q: And the MIC90 ([4]; 48 h)?
A: 32 µg/mL (≈ 22.1 µM)

Q: What about the “Geometric Mean” value ([4]; anaerobes) of the same molecule?
A: 9.306 µg/mL

Q: And the “MIC Range” value ([4]; anaerobes)?
A: 0.5 to 32 µg/mL

Q: What about the MIC ([5]; Clostridium, read-out: MIC Clostridium camis) of the same molecule?
A: 2 µg/mL (≈ 1.38 µM)

Q: What about the MIC ([6]; Clostridium perfringens, read-out: MIC Clostridium perfringens) of the same molecule?
A: 0.5 µg/mL (≈ 0.345 µM)

Q: What about the MIC ([7]; Clostridioides difficile, read-out: MIC Clostridium difficile, single isolates, anaerobic agar dilution) of the same molecule?
A: 2 µg/mL (≈ 1.38 µM)

Q: And the “MIC Clostridium difficile” value [7]?
A: 4 µg/mL (≈ 2.76 µM)

Q: What about the MIC ([8]; Bacteroides fragilis, read-out: MIC Bacteroides fragilis) of the same molecule?
A: > 16 µg/mL

Q: And the MIC [9]?
A: > 16 µg/mL

Q: And the MIC ([10]; Prevotella bivia, read-out: MIC Prevotella bivia)?
A: > 16 µg/mL

Q: What about the MIC ([11]; Prevotella intermedia, read-out: MIC Prevotella intermedia) of the same molecule?
A: > 16 µg/mL

Q: And the MIC [12]?
A: > 16 µg/mL

Q: What about the MIC ([13]; Porphyromonas asaccharolytica, read-out: MIC Porphyromonas asaccharolytica) of the same molecule?
A: 2 µg/mL (≈ 1.38 µM)

Q: What about the MIC ([14]; Fusobacterium, read-out: MIC Fusobacterium montiferum) of the same molecule?
A: > 16 µg/mL

Q: What about the MIC [15] of the same molecule?
A: > 16 µg/mL

Q: And the MIC ([16]; Porphyromonas gingivalis, read-out: MIC Porphyromonas gingivalis)?
A: 8 µg/mL (≈ 5.52 µM)

Q: And the MIC [17]?
A: > 16 µg/mL

Q: And the MIC ([18]; Cutibacterium acnes, read-out: MIC P. acnes, single isolates, anaerobic agar dilution)?
A: 0.5 µg/mL (≈ 0.345 µM)

Q: And the “MIC P. acnes” value [18]?
A: 1 µg/mL (≈ 0.69 µM)

Q: What about the MIC ([19]; Peptostreptococcus, read-out: MIC Peptostreptococcus magnum, single isolates, anaerobic agar dilution) of the same molecule?
A: 0.5 µg/mL (≈ 0.345 µM)

Q: What about the “MIC Peptostreptococcus magnum” value [19, 44] of the same molecule?
A: 0.25 µg/mL (≈ 0.173 µM)

Q: And the MIC [20]?
A: 1 µg/mL (≈ 0.69 µM)

Q: What about the MIC ([21]; Anaerococcus tetradius, read-out: MIC Peptostreptococcus tetradius) of the same molecule?
A: 1 µg/mL (≈ 0.69 µM)

Q: And the MIC [22]?
A: 0.125 µg/mL (≈ 0.0863 µM)

Q: And the MIC ([23]; Eubacterium, read-out: MIC Eubacterium leutum)?
A: 1 µg/mL (≈ 0.69 µM)

Q: And the MIC ([24]; Fusobacterium necrogenes, read-out: MIC Fusobacterium necrogenes)?
A: > 16 µg/mL

Q: What about the MIC ([25]; Staphylococcus epidermidis, MRSE, read-out: broth MIC) of the same molecule?
A: 1 µg/mL (≈ 0.69 µM)

Q: And the MIC ([26]; Staphylococcus aureus, MRSA, read-out: MIC MRSA 15187)?
A: 0.5 µg/mL (≈ 0.345 µM)

Q: And the MIC [27]?
A: 0.5 µg/mL (≈ 0.345 µM)

Q: And the MIC ([27]; read-out: MIC MRSA 562)?
A: 0.5 µg/mL (≈ 0.345 µM)

Q: What about the MIC ([28]; Staphylococcus aureus, MRSA, read-out: MIC MRSA 33) of the same molecule?
A: 0.5 µg/mL (≈ 0.345 µM)

Q: What about the MIC ([29]; Enterococcus faecalis, ATCC29212, read-out: MIC E. faecalis 29212) of the same molecule?
A: 4 µg/mL (≈ 2.76 µM)

Q: What about the MIC ([30]; Enterococcus, VRE, read-out: MIC VRE 6A) of the same molecule?
A: > 16 µg/mL

Q: What about the MIC ([31]; Streptococcus pyogenes, ATCC19615, read-out: MIC S. pyogenes 19615) of the same molecule?
A: 0.5 µg/mL (≈ 0.345 µM)

Q: What about the MIC ([32]; Streptococcus pneumoniae, ATCC6303, read-out: MIC S. pneum 6303) of the same molecule?
A: 0.5 µg/mL (≈ 0.345 µM)

Q: What about the MIC ([33]; Streptococcus pneumoniae, AB34, read-out: MIC S. pneum AB 34) of the same molecule?
A: 0.25 µg/mL (≈ 0.173 µM)

Q: And the MIC50 [34]?
A: 0.5 µg/mL (≈ 0.345 µM)

Q: And the MIC90 [34]?
A: 16 µg/mL (≈ 11 µM)

Q: And the MIC50 [35]?
A: 1 µg/mL (≈ 0.69 µM)

Q: And the MIC90 [35]?
A: 1 µg/mL (≈ 0.69 µM)

Q: What about the MIC50 [36] of the same molecule?
A: 16 µg/mL (≈ 11 µM)

Q: And the MIC90 [36]?
A: 16 µg/mL (≈ 11 µM)

Q: What about the MIC50 [37] of the same molecule?
A: 0.5 µg/mL (≈ 0.345 µM)

Q: And the MIC90 [37]?
A: 0.5 µg/mL (≈ 0.345 µM)

Q: And the MIC ([37]; read-out: Geometric Mean of in vitro activity (MIC))?
A: 0.39 µg/mL (≈ 0.269 µM)

Q: And the “concentration which would kill adherent bacteria” value [38]?
A: 8 µg/mL

Q: Which results are given for `CC(=O)NC[C@H]1CN(c2ccc(N3CCN(Cc4ccc([N+](=O)[O-])o4)CC3)c(F)c2)C(=O)O1.Cl` [Compound No. 16]?
A: Agar MIC [1]: 2 µg/mL; Broth MIC +50% Sheep serum [2]: 2 µg/mL; Broth MIC Normal MH broth [2]: 2 µg/mL; Geometric Mean ([4]; anaerobes): 0.037 µg/mL; MIC Range ([4]; anaerobes): 0.004 to 1 µg/mL; MIC50 [4, 45]: 0.032 µg/mL; MIC90 [4, 45]: 0.25 µg/mL; MIC Clostridium camis [5, 44]: 0.03 µg/mL and 0.016 µg/mL; MIC Clostridium perfringens [6, 44]: 0.03 µg/mL; MIC Clostridium difficile [7]: 0.03 µg/mL; MIC Bacteroides fragilis [8, 44]: 0.03 µg/mL and 0.06 µg/mL; MIC Prevotella bivia [10, 46]: 0.125 µg/mL; MIC Prevotella intermedia [11, 44]: 0.016 µg/mL; MIC Porphyromonas asaccharolytica [13, 46]: <=.008 μg/ml; MIC Fusobacterium montiferum [14, 44]: 0.03 µg/mL; MIC Porphyromonas gingivalis [16, 46]: <=.008 μg/ml; MIC P. acnes [18]: 1 µg/mL; MIC Peptostreptococcus asaccharolyticus [39]: <=.008 μg/ml; MIC Peptostreptococcus tetradius [21, 44]: <=.008 μg/ml; MIC Eubacterium leutum [23, 44]: <=.008 μg/ml; MIC Fusobacterium necrogenes [24, 46]: <=.008 μg/ml; Formation of biofilm inhibition [40]: occurs at lower a concentration; broth MIC ([25]; MRSE 879): 0.5 µg/mL; MIC50 ([41]; Middlebrook 7H10 agar, 21 days): 8 µg/mL; MIC90 ([41]; Middlebrook 7H10 agar, 21 days): 32 µg/mL; G.M. ([41]; geometric mean MIC): 8.52 µg/mL; MIC50 ([42]; Middlebrook 7H10 agar, 21 days): 4 µg/mL; MIC90 ([42]; Middlebrook 7H10 agar, 21 days): 64 µg/mL; G.M. ([42]; geometric mean MIC): 5.44 µg/mL; MIC S. aureus 25923 [43]: 2 µg/mL; MIC MRSA 15187 ([26]; agar incorporation): 4 µg/mL; MIC MRSA 33 ([28]; agar incorporation): 4 µg/mL; MIC E. faecalis 29212 ([29]; agar incorporation): 2 µg/mL; MIC VRE 6A ([30]; agar incorporation): 4 µg/mL; MIC S. pyogenes 19615 ([31]; agar incorporation): 0.5 µg/mL; MIC S. pneum 6303 ([32]; agar incorporation): 1 µg/mL; MIC S. pneum AB 34 ([33]; agar incorporation): 1 µg/mL; concentration which would kill adherent bacteria [38]: 2 µg/mL

— US20040254162A1, “Oxazolidinone derivatives as antimicrobials” (priority 2001, published 2004)
